Test system: MOG35-55-induced experimental autoimmune encephalomyelitis (EAE) mouse model
Assay: MOG35-55-induced EAE mouse model, clinical scoring and incidence
Type: in vivo, C57BL/6 mice
Conditions: for inhibition rate of AUC for clinical scoring: 14 days, vs vehicle control

## CN(c1ncnc2[nH]ccc12)[C@@H]1CCc2cc(C#N)nn2C1 [Compound I]
3 mg/kg BID oral
  inhibition rate of AUC for clinical scoring: 44%
10 mg/kg BID oral
  inhibition rate of AUC for clinical scoring: 77%
20 mg/kg BID oral
  inhibition rate of AUC for clinical scoring: 63%
20 mg/kg QD oral
  inhibition rate of AUC for clinical scoring: 60%
G5, 3 mg/kg BID oral, day 0
  EAE clinical scoring, Mean: 0.00
  incidence of EAE: 0%
G5, 3 mg/kg BID oral, day 2
  EAE clinical scoring, Mean: 0.00
  incidence of EAE: 0%
G5, 3 mg/kg BID oral, day 4
  EAE clinical scoring, Mean: 0.00
  incidence of EAE: 0%
G5, 3 mg/kg BID oral, day 7
  EAE clinical scoring, Mean: 0.00
  incidence of EAE: 0%
G5, 3 mg/kg BID oral, day 9
  EAE clinical scoring, Mean: 0.00
  incidence of EAE: 0%
G5, 3 mg/kg BID oral, day 11
  EAE clinical scoring, Mean: 0.00
  incidence of EAE: 0%
G5, 3 mg/kg BID oral, day 12
  EAE clinical scoring, Mean: 0.00
  incidence of EAE: 0%
G5, 3 mg/kg BID oral, day 13
  EAE clinical scoring, Mean: 0.20
  incidence of EAE: 20%
G5, 3 mg/kg BID oral, day 14
  EAE clinical scoring, Mean: 0.40
  incidence of EAE: 40%
G5, 3 mg/kg BID oral, day 15
  EAE clinical scoring, Mean: 0.60
  incidence of EAE: 60%
G5, 3 mg/kg BID oral, day 16
  EAE clinical scoring, Mean: 0.90
  incidence of EAE: 70%
G5, 3 mg/kg BID oral, day 17
  EAE clinical scoring, Mean: 1.50
  incidence of EAE: 80%
G5, 3 mg/kg BID oral, day 18
  EAE clinical scoring, Mean: 1.90
  incidence of EAE: 90%
G5, 3 mg/kg BID oral, day 19
  EAE clinical scoring, Mean: 1.90
  incidence of EAE: 100%
G5, 3 mg/kg BID oral, day 20
  EAE clinical scoring, Mean: 1.30
  incidence of EAE: 70%
G5, 3 mg/kg BID oral, day 21
  EAE clinical scoring, Mean: 1.10
  incidence of EAE: 60%
G5, 3 mg/kg BID oral, day 22
  EAE clinical scoring, Mean: 1.10
  incidence of EAE: 60%
G5, 3 mg/kg BID oral, day 23
  EAE clinical scoring, Mean: 1.00
  incidence of EAE: 60%
G5, 3 mg/kg BID oral, day 24
  EAE clinical scoring, Mean: 0.80
  incidence of EAE: 50%
G5, 3 mg/kg BID oral, day 25
  EAE clinical scoring, Mean: 0.80
  incidence of EAE: 50%
G5, 3 mg/kg BID oral, day 26
  EAE clinical scoring, Mean: 0.80
  incidence of EAE: 50%
G5, 3 mg/kg BID oral, day 27
  EAE clinical scoring, Mean: 0.60
  incidence of EAE: 30%
G6, 10 mg/kg BID oral, day 0
  EAE clinical scoring, Mean: 0.00
  incidence of EAE: 0%
G6, 10 mg/kg BID oral, day 2
  EAE clinical scoring, Mean: 0.00
  incidence of EAE: 0%
G6, 10 mg/kg BID oral, day 4
  EAE clinical scoring, Mean: 0.00
  incidence of EAE: 0%
G6, 10 mg/kg BID oral, day 7
  EAE clinical scoring, Mean: 0.00
  incidence of EAE: 0%
G6, 10 mg/kg BID oral, day 9
  EAE clinical scoring, Mean: 0.00
  incidence of EAE: 0%
G6, 10 mg/kg BID oral, day 11
  EAE clinical scoring, Mean: 0.00
  incidence of EAE: 0%
G6, 10 mg/kg BID oral, day 12
  EAE clinical scoring, Mean: 0.00
  incidence of EAE: 0%
G6, 10 mg/kg BID oral, day 13
  EAE clinical scoring, Mean: 0.20
  incidence of EAE: 20%
G6, 10 mg/kg BID oral, day 14
  EAE clinical scoring, Mean: 0.40
  incidence of EAE: 40%
G6, 10 mg/kg BID oral, day 15
  EAE clinical scoring, Mean: 0.50
  incidence of EAE: 50%
G6, 10 mg/kg BID oral, day 16
  EAE clinical scoring, Mean: 0.60
  incidence of EAE: 50%
G6, 10 mg/kg BID oral, day 17
  EAE clinical scoring, Mean: 0.50
  incidence of EAE: 40%
G6, 10 mg/kg BID oral, day 18
  EAE clinical scoring, Mean: 0.60
  incidence of EAE: 40%
G6, 10 mg/kg BID oral, day 19
  EAE clinical scoring, Mean: 0.40
  incidence of EAE: 20%
G6, 10 mg/kg BID oral, day 20
  EAE clinical scoring, Mean: 0.30
  incidence of EAE: 10%
G6, 10 mg/kg BID oral, day 21
  EAE clinical scoring, Mean: 0.30
  incidence of EAE: 20%
G6, 10 mg/kg BID oral, day 22
  EAE clinical scoring, Mean: 0.30
  incidence of EAE: 20%
G6, 10 mg/kg BID oral, day 23
  EAE clinical scoring, Mean: 0.40
  incidence of EAE: 30%
G6, 10 mg/kg BID oral, day 24
  EAE clinical scoring, Mean: 0.40
  incidence of EAE: 30%
G6, 10 mg/kg BID oral, day 25
  EAE clinical scoring, Mean: 0.40
  incidence of EAE: 30%
G6, 10 mg/kg BID oral, day 26
  EAE clinical scoring, Mean: 0.40
  incidence of EAE: 30%

Reference: US20240238299A1, “USE OF PYRROLOPYRIMIDINE COMPOUND” (GUANGZHOU JOYO PHARMATECH CO., LTD, priority 2021, published 2024)
